Reference: patent US9550749B2, “Endoparasite control agent and method for using the same” (The University of Tokyo, priority 2012, dated 2017)

Tests used:
[1] = molecular target: T1, Ascaris suum succinate-ubiquinone reductase (mitochondrial complex II) (Ascaris suum, UniProt O44074+P92506+P92507); test: In vitro measurement of inhibitory activity on Ascaris suum succinate-ubiquinone reductase (mitochondrial complex II); format: biochemical; conditions: mitochondria from adult Ascaris suum muscle, UQ2 60 μM, succinate 10 mM, 25° C.
T1 construct: from tissue; host or cells: mitochondria from adult Ascaris suum muscle
Experimental: In Vitro Measurement of Inhibitory Activity on Ascaris suum Succinate-Ubiquinone Reductase (Mitochondrial Complex II)
To a solution containing 50 mM potassium phosphate (pH 7.4) and 0.1% (w/v) sucrose monolaurate, an electron acceptor ubiquinone-2 (UQ2) was added at a final concentration of 60 μM, and the mixture was allowed to stand at 25° C. for 20 minutes. To this, potassium cyanide (final concentration: 2 mM) and mitochondria prepared from adult Ascaris suum muscle were added, and thorough mixing was done. To aliquots of the mixture, an inhibitor to be tested was added at various concentrations, and the mixtures were allowed to stand at 25° C. for 3 minutes. The enzymatic reaction was initiated by addition of potassium succinate (final concentration: 10 mM). The enzymatic activity was calculated based on the measurement of change in the absorbance at 278 nm of UQ2 (e=1.5×10^4 M^−1 cm^−1), and IC50 was determined from the plot of the inhibition percentage against the inhibitor concentration.

[2] = tested on: Haemonchus contortus L1-stage larvae; test: In vivo activity test on Haemonchus nematode (motor ability of L1-stage larvae in 96-well plate); conditions: 27° C./95% RH, 4 days
Experimental: In Vivo Activity Test on Haemonchus Nematode In a 96-well plate, twenty L1-stage larvae (Haemonchus contortus) per well were maintained so that they could freely move, and solutions of compounds of the present invention dissolved at predetermined concentrations in DMSO (the final concentration of DMSO was 0.78% (v/v)) were added at 0.5 Ill/well each. The plate was kept under the conditions of 27° C./95% RH for 4 days. The motor ability of the larvae was examined and the concentration required for 50% inhibition of the motor ability (EC50) was determined. Based on the EC50 value, the activity against the Haemonchus nematode was graded according to the criterion shown below. Grading Criterion A: The EC50 value is lower than 0.5 ppm. B: The EC50 value is 0.5 ppm or higher but lower than 5 ppm. C: The EC50 value is 5 ppm or higher.

T1 sequence (O44074 22-282): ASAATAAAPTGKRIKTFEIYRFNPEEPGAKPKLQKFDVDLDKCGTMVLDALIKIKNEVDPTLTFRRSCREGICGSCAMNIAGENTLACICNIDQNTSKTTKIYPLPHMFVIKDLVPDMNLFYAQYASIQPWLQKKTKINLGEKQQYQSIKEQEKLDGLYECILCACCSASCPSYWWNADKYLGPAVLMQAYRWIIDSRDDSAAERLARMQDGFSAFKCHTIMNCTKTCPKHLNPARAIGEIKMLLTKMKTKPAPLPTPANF
T1 sequence (P92506 32-188): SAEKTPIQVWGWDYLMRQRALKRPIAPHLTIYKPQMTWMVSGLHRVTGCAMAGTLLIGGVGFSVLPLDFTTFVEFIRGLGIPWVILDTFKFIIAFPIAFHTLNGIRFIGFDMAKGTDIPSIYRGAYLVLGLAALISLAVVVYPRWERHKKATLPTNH
T1 sequence (P92507 26-156): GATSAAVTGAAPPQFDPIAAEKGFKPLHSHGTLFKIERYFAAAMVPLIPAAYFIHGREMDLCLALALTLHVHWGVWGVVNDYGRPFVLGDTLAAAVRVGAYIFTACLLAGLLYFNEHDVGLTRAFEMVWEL
T1 sequence (Q33862 19-645 partner): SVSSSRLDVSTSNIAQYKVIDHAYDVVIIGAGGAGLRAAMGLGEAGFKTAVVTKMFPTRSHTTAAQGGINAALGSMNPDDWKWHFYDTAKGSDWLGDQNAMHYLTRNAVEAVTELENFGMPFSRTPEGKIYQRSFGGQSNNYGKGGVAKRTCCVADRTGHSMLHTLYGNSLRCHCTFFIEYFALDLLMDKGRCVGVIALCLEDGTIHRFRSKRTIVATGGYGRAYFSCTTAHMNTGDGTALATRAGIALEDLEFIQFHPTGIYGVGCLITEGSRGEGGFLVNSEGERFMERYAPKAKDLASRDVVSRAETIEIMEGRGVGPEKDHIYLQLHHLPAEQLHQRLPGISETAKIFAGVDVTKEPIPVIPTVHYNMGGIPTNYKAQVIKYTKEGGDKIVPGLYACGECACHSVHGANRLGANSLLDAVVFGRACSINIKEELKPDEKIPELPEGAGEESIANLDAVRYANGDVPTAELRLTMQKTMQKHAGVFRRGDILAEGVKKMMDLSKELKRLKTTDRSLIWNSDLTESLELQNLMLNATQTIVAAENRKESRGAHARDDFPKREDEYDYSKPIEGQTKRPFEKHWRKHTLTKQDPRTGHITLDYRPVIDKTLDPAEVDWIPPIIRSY

Row | IC50 [1] [nM] | SMILES | Grade (EC50, concentration required for 50% inhibition of the motor ability of larvae) [2]
1 | 11 | O=C(NCCNc1ncc(C(F)(F)F)cc1Cl)c1ccccc1C(F)(F)F [Compound 24] | A (The EC50 value is lower than 0.5 ppm.)
2 | 1.4 | O=C(NCCc1ccc(Oc2ncc(C(F)(F)F)cc2Cl)cc1Cl)c1ccccc1C(F)(F)F [Compound 26] | A (The EC50 value is lower than 0.5 ppm.)
3 | 260 | C[S+]([O-])c1ccc(CCNC(=O)c2ccccc2C(F)(F)F)c(Cl)c1 (centres unmarked) [Compound 27] | B (The EC50 value is 0.5 ppm or higher but lower than 5 ppm.)
4 | 1.2 | CSc1ccccc1C(=O)NCCc1ccc(Cl)cc1Cl [Compound 28] | A (The EC50 value is lower than 0.5 ppm.)
5 | 8.2 | O=C(NCCc1ccc(Cl)cc1Cl)c1ccccc1SC(F)F [Compound 31] | 
6 | 48 | O=C(NCCc1ccc(Cl)cc1Cl)c1ccccc1OC(F)(F)F [Compound 32] | A (The EC50 value is lower than 0.5 ppm.)
7 | 2.1 | O=C(NCCc1ncc(C(F)(F)F)cc1Cl)c1ccccc1Cl [Compound 34] | 
8 | 2.3 | O=C(NCCc1ncc(C(F)(F)F)cc1Cl)c1ccccc1Br [Compound 35] | 
9 | 1.2 | O=C(NCCc1ncc(C(F)(F)F)cc1Cl)c1ccccc1I [Compound 36] | A (The EC50 value is lower than 0.5 ppm.)
10 | 2.6 | Cc1ccccc1C(=O)NCCc1ncc(C(F)(F)F)cc1Cl [Compound 37] | 

Second part, the compound before the results:

Row | SMILES | IC50 [1] [nM] | Grade (EC50, concentration required for 50% inhibition of the motor ability of larvae) [2]
11 | C[C@@H](Cn1nc(Cl)cc1C(F)(F)F)NC(=O)c1ccccc1C(F)(F)F [Compound 1] | 5.2 | A (The EC50 value is lower than 0.5 ppm.)
12 | C[C@@H](Cn1nc(C(F)(F)F)cc1Cl)NC(=O)c1ccccc1C(F)(F)F [Compound 2] |  | A (The EC50 value is lower than 0.5 ppm.)
13 | C[C@@H](Cn1nc(Cl)c(Br)c1Cl)NC(=O)c1ccccc1C(F)(F)F [Compound 3] | 1.4 | A (The EC50 value is lower than 0.5 ppm.)
14 | C[C@@H](Cn1nc(C(F)(F)F)c(Cl)c1Cl)NC(=O)c1ccccc1C(F)(F)F [Compound 4] | 1.9 | A (The EC50 value is lower than 0.5 ppm.)
15 | C[C@@H](Cn1nc(C(F)(F)F)cc1Br)NC(=O)c1ccccc1C(F)(F)F [Compound 5] | 5.8 | A (The EC50 value is lower than 0.5 ppm.)
16 | Cc1ccccc1C(=O)N[C@@H](C)Cn1nc(Cl)c(Br)c1C(F)(F)F [Compound 6] | 2 | 
17 | C[C@@H](Cn1nc(Cl)c(Br)c1C(F)(F)F)NC(=O)c1ccccc1C(F)(F)F [Compound 7] | 1.7 | A (The EC50 value is lower than 0.5 ppm.)
18 | Cc1ccccc1C(=O)N[C@@H](C)Cn1nc(Cl)cc1C(F)(F)F [Compound 10] |  | B (The EC50 value is 0.5 ppm or higher but lower than 5 ppm.)
19 | C[C@@H](Cn1nc(Br)c(Br)c1Br)NC(=O)c1ccccc1C(F)(F)F [Compound 14] | 1.8 | 
20 | CSc1cc(C(F)(F)F)n(C[C@H](C)NC(=O)c2ccccc2C(F)(F)F)n1 [Compound 18] | 3.1 | 
21 | C[C@@H](COc1ncc(C(F)(F)F)cc1Cl)NC(=O)c1ccccc1C(F)(F)F [Compound 23] | 1.8 | A (The EC50 value is lower than 0.5 ppm.)
22 | O=C(NCCc1ncc(C(F)(F)F)cc1Cl)c1c(F)cccc1F [Compound 39] | 5.3 | 
23 | O=C(NCCc1ncc(C(F)(F)F)cc1Cl)c1c(Cl)cccc1Cl [Compound 40] | 39 | 
